# Assay results taken from patent publication EP0678100B1, “SYNTHETIC AMPHIPATHIC PEPTIDES WITH ANTIMICROBIAL ACTIVITY” (PIONEER HI-BRED INTERNATIONAL, INC., priority 1993, dated 1998).
# Read-outs that look alike come from different tables or passages of the source. Residues, ends and D or L forms follow the SMILES beside them. No end group written: not given here.
# Tests used:
# F. moniliforme = conditions: for MCIC: Minimum Complete Inhibitory Concentration, achieving a score of 3 or greater
# A. flavus = conditions: for MCIC: Minimum Complete Inhibitory Concentration, achieving a score of 3 or greater
# [1] = F. graminearum, minimum inhibitory concentration, achieving a score of 1 or greater
# [2] = F. moniliforme, minimum inhibitory concentration, achieving a score of 1 or greater
# [3] = A. flavus, minimum inhibitory concentration, achieving a score of 1 or greater
compound,measurement,setting,value
CC[C@H](C)[C@H](NC(=O)CNC(=O)[C@@H](NC(=O)[C@@H](NC(=O)[C@@H](NC(=O)CNC(=O)[C@@H]1CCCN1C(=O)CNC(=O)[C@H](C)NC(=O)[C@H](CCCCN)NC(=O)[C@@H](NC(=O)[C@H](CCCCN)NC(=O)[C@H](CCCCN)NC(=O)[C@@H]1CCCN1C(=O)[C@@H](NC(=O)[C@H](Cc1c[nH]cn1)NC(=O)[C@H](CCCCN)NC(=O)[C@@H](NC(=O)[C@H](C)NC(=O)[C@H](CCCCN)NC(=O)[C@H](CCC(=O)O)NC(=O)[C@@H](NC(=O)[C@H](CCCCN)NC(=O)[C@@H](N)CCCCN)[C@@H](C)CC)[C@@H](C)CC)[C@@H](C)CC)[C@@H](C)CC)C(C)C)[C@@H](C)O)[C@@H](C)CC)C(=O)N[C@@H](C)C(=O)N[C@@H](Cc1c[nH]cn1)C(=O)N[C@@H](C)C(=O)N[C@@H](CCCCN)C(=O)N[C@@H](CO)C(=O)N[C@@H](CCC(N)=O)C(=O)N[C@@H](CC(C)C)C(=O)N[C@@H](Cc1c[nH]c2ccccc12)C(=O)O [Peptide 1] (H-KKIEKAIKHIPKKIKAGPGVTIGIAHAKSQLW-OH),MIC,F. graminearum; [1],0.017 ng/mL
same,MIC,F. moniliforme; [2],17
CC[C@H](C)[C@H](NC(=O)CNC(=O)[C@@H](NC(=O)[C@@H](NC(=O)[C@@H](NC(=O)CNC(=O)[C@@H]1CCCN1C(=O)CNC(=O)[C@H](C)NC(=O)[C@H](CCCCN)NC(=O)[C@H](Cc1c[nH]c2ccccc12)NC(=O)[C@H](Cc1c[nH]cn1)NC(=O)[C@H](CCCNC(=N)N)NC(=O)[C@H](C)NC(=O)[C@H](CC(C)C)NC(=O)[C@H](C)NC(=O)[C@H](CCCNC(=N)N)NC(=O)[C@H](CC(C)C)NC(=O)[C@H](C)NC(=O)[C@H](CCCCN)NC(=O)[C@H](CCCCN)NC(=O)[C@H](CC(C)C)NC(=O)[C@@H](N)CCCCN)C(C)C)[C@@H](C)O)[C@@H](C)CC)C(=O)N[C@@H](C)C(=O)N[C@@H](Cc1c[nH]cn1)C(=O)N[C@@H](C)C(=O)N[C@@H](CCCCN)C(=O)N[C@@H](CO)C(=O)N[C@@H](CCC(N)=O)C(=O)N[C@@H](CC(C)C)C(=O)N[C@@H](Cc1c[nH]c2ccccc12)C(=O)O [Peptide 2] (H-KLKKALRALARHWKAGPGVTIGIAHAKSQLW-OH),MIC,F. graminearum; [1],0.014 ng/mL
same,MIC,F. moniliforme; [2],14
CC[C@H](C)[C@H](NC(=O)CNC(=O)[C@@H](NC(=O)[C@@H](NC(=O)[C@@H](NC(=O)CNC(=O)[C@@H]1CCCN1C(=O)CNC(=O)[C@H](C)NC(=O)[C@H](CC(C)C)NC(=O)[C@H](C)NC(=O)[C@H](CCCNC(=N)N)NC(=O)[C@@H](NC(=O)[C@H](CCCNC(=N)N)NC(=O)[C@@H](NC(=O)[C@H](CCCNC(=N)N)NC(=O)[C@H](CCCNC(=N)N)NC(=O)[C@@H]1CCCN1C(=O)[C@@H](NC(=O)[C@H](Cc1c[nH]cn1)NC(=O)[C@H](CCCNC(=N)N)NC(=O)[C@@H](NC(=O)[C@H](C)NC(=O)[C@H](CCCNC(=N)N)NC(=O)[C@H](Cc1ccc(O)cc1)NC(=O)[C@@H](NC(=O)[C@H](CCCNC(=N)N)NC(=O)[C@H](CCCNC(=N)N)NC(=O)[C@@H](NC(=O)[C@H](C)NC(=O)[C@H](CCCNC(=N)N)NC(=O)[C@@H](N)CCC(N)=O)C(C)C)[C@@H](C)CC)[C@@H](C)CC)[C@@H](C)CC)[C@@H](C)CC)[C@@H](C)CC)C(C)C)[C@@H](C)O)[C@@H](C)CC)C(=O)N[C@@H](C)C(=O)N[C@@H](Cc1c[nH]cn1)C(=O)N[C@@H](C)C(=O)N[C@@H](CCCCN)C(=O)N[C@@H](CO)C(=O)N[C@@H](CCC(N)=O)C(=O)N[C@@H](CC(C)C)C(=O)N[C@@H](Cc1c[nH]c2ccccc12)C(=O)O [Peptide 3] (H-QRAVRRIYRAIRHIPRRIRIRALAGPGVTIGIAHAKSQLW-OH),MIC,F. graminearum; [1],0.013 ng/mL
same,MIC,F. moniliforme,13
same,% Inhibition of Growth,E. coli; concentration 3.00 µg/ml,0%
same,% Inhibition of Growth,E. coli; concentration 6.25 µg/ml,0%
same,% Inhibition of Growth,E. coli; concentration 12.5 µg/ml,0%
same,% Inhibition of Growth,E. coli; concentration 25 µg/ml,0%
same,% Inhibition of Growth,E. coli; concentration 50 µg/ml,0%
same,% Inhibition of Growth,P. syringae; concentration 3.00 µg/ml,0%
same,% Inhibition of Growth,P. syringae; concentration 6.25 µg/ml,11%
same,% Inhibition of Growth,P. syringae; concentration 12.5 µg/ml,30%
same,% Inhibition of Growth,P. syringae; concentration 25 µg/ml,48%
same,% Inhibition of Growth,P. syringae; concentration 50 µg/ml,52%
same,% Inhibition of Growth,E. stewartii; concentration 3.00 µg/ml,0%
same,% Inhibition of Growth,E. stewartii; concentration 6.25 µg/ml,0%
same,% Inhibition of Growth,E. stewartii; concentration 12.5 µg/ml,49%
same,% Inhibition of Growth,E. stewartii; concentration 25 µg/ml,80%
same,% Inhibition of Growth,E. stewartii; concentration 50 µg/ml,100%
CC[C@H](C)[C@H](NC(=O)CNC(=O)[C@@H](NC(=O)[C@@H](NC(=O)[C@@H](NC(=O)CNC(=O)[C@@H]1CCCN1C(=O)CNC(=O)[C@H](C)NC(=O)[C@H](CC(C)C)NC(=O)[C@H](C)NC(=O)[C@H](CCCNC(=N)N)NC(=O)[C@@H](NC(=O)[C@H](CCCCN)NC(=O)[C@@H](NC(=O)[C@H](CCCCN)NC(=O)[C@H](CCCCN)NC(=O)[C@@H]1CCCN1C(=O)[C@@H](NC(=O)[C@H](Cc1c[nH]cn1)NC(=O)[C@H](CCCCN)NC(=O)[C@@H](NC(=O)[C@H](C)NC(=O)[C@H](CCCCN)NC(=O)[C@H](CCC(=O)O)NC(=O)[C@@H](NC(=O)[C@H](CCCCN)NC(=O)[C@H](CCCCN)NC(=O)[C@@H](NC(=O)[C@H](C)NC(=O)[C@H](CCCNC(=N)N)NC(=O)[C@@H](N)CCC(N)=O)C(C)C)[C@@H](C)CC)[C@@H](C)CC)[C@@H](C)CC)[C@@H](C)CC)[C@@H](C)CC)C(C)C)[C@@H](C)O)[C@@H](C)CC)C(=O)N[C@@H](C)C(=O)N[C@@H](Cc1c[nH]cn1)C(=O)N[C@@H](C)C(=O)N[C@@H](CCCCN)C(=O)N[C@@H](CO)C(=O)N[C@@H](CCC(N)=O)C(=O)N[C@@H](CC(C)C)C(=O)N[C@@H](Cc1c[nH]c2ccccc12)C(=O)O [Peptide 4] (H-QRAVKKIEKAIKHIPKKIKIRALAGPGVTIGIAHAKSQLW-OH),MIC,F. graminearum; [1],0.013 ng/mL
same,MIC,F. moniliforme; [2],17
CC[C@H](C)[C@H](NC(=O)CNC(=O)[C@@H](NC(=O)[C@@H](NC(=O)[C@@H](NC(=O)CNC(=O)[C@@H]1CCCN1C(=O)CNC(=O)[C@H](C)NC(=O)[C@@H](NC(=O)[C@H](C)NC(=O)[C@H](CCCNC(=N)N)NC(=O)[C@H](CCC(N)=O)NC(=O)[C@H](CC(C)C)NC(=O)[C@H](C)NC(=O)[C@H](CCCNC(=N)N)NC(=O)[C@@H](NC(=O)[C@H](CCCCN)NC(=O)[C@H](CCCNC(=N)N)NC(=O)[C@H](CCCNC(=N)N)NC(=O)[C@H](CC(C)C)NC(=O)[C@H](Cc1c[nH]c2ccccc12)NC(=O)[C@H](CCCNC(=N)N)NC(=O)[C@@H](NC(=O)[C@H](CC(C)C)NC(=O)[C@H](CCCCN)NC(=O)[C@H](CCCNC(=N)N)NC(=O)[C@@H](NC(=O)[C@H](CC(C)C)NC(=O)[C@@H](N)CCCCN)[C@@H](C)CC)[C@@H](C)CC)[C@@H](C)CC)C(C)C)C(C)C)[C@@H](C)O)[C@@H](C)CC)C(=O)N[C@@H](C)C(=O)N[C@@H](Cc1c[nH]cn1)C(=O)N[C@@H](C)C(=O)N[C@@H](CCCCN)C(=O)N[C@@H](CO)C(=O)N[C@@H](CCC(N)=O)C(=O)N[C@@H](CC(C)C)C(=O)N[C@@H](Cc1c[nH]c2ccccc12)C(=O)O [Peptide 7] (H-KLIRKLIRWLRRKIRALQRAVAGPGVTIGIAHAKSQLW-OH),MIC,A. flavus; [3],40
same,MIC,F. graminearum,0.01 ng/mL
same,MIC,F. moniliforme; [2],10
CC[C@H](C)[C@H](NC(=O)[C@H](C)NC(=O)[C@H](CCCNC(=N)N)NC(=O)[C@H](Cc1ccc(O)cc1)NC(=O)[C@@H](NC(=O)[C@H](CCCNC(=N)N)NC(=O)[C@@H](N)CCCNC(=N)N)[C@@H](C)CC)C(=O)N[C@@H](CCCNC(=N)N)C(=O)N[C@@H](Cc1c[nH]cn1)C(=O)N[C@H](C(=O)N1CCC[C@H]1C(=O)N[C@@H](CCCNC(=N)N)C(=O)N[C@@H](CCCNC(=N)N)C(=O)N[C@H](C(=O)N[C@@H](CCCNC(=N)N)C(=O)NCC(=O)N[C@@H](Cc1c[nH]c2ccccc12)C(=O)N[C@@H](CC(C)C)C(=O)N[C@@H](CCCNC(=N)N)C(=O)N[C@@H](CCCNC(=N)N)C(=O)N[C@H](C(=O)NCC(=O)N[C@@H](CCCNC(=N)N)C(=O)N[C@@H](CCCNC(=N)N)C(=O)N[C@H](C(=O)N[C@@H](CCC(=O)O)C(=O)N[C@@H](CCCNC(=N)N)C(=O)N[C@H](C(=O)NCC(=O)N[C@@H](CCC(N)=O)C(=O)N[C@@H](Cc1c[nH]cn1)C(=O)O)C(C)C)[C@@H](C)CC)[C@@H](C)CC)[C@@H](C)CC)[C@@H](C)CC [Peptide 9] (H-RRIYRAIRHIPRRIRGWLRRIGRRIERVGQH-OH),MIC,A. flavus,15
same,MIC,F. graminearum; [1],0.01 ng/mL
same,MIC,F. moniliforme,10
CC[C@H](C)[C@H](NC(=O)[C@H](C)NC(=O)[C@H](CCCCN)NC(=O)[C@H](CCC(=O)O)NC(=O)[C@@H](NC(=O)[C@H](CCCCN)NC(=O)[C@@H](N)CCCCN)[C@@H](C)CC)C(=O)N[C@@H](CCCCN)C(=O)N[C@@H](Cc1c[nH]cn1)C(=O)N[C@H](C(=O)N1CCC[C@H]1C(=O)N[C@@H](CCCCN)C(=O)N[C@@H](CCCCN)C(=O)N[C@H](C(=O)N[C@@H](CCCCN)C(=O)N[C@@H](CC(C)C)C(=O)N[C@@H](CCCCN)C(=O)N[C@@H](CCCCN)C(=O)N[C@@H](C)C(=O)N[C@@H](CC(C)C)C(=O)N[C@@H](CCCNC(=N)N)C(=O)N[C@@H](C)C(=O)N[C@@H](CC(C)C)C(=O)N[C@@H](C)C(=O)N[C@@H](CCCNC(=N)N)C(=O)N[C@@H](Cc1c[nH]cn1)C(=O)N[C@@H](Cc1c[nH]c2ccccc12)C(=O)N[C@@H](CCCCN)C(=O)O)[C@@H](C)CC)[C@@H](C)CC [Peptide 10] (H-KKIEKAIKHIPKKIKLKKALRALARHWK-OH),MIC,A. flavus; [3],80
same,MIC,F. graminearum; [1],0.01 ng/mL
same,MIC,F. moniliforme; [2],7.5
Cecropin A [reference compound],MCIC,A. flavus; A. flavus,>80 µg/mL
same,MIC,A. flavus; [3],80
same,MCIC,F. graminearum,>80 µg/mL
same,MIC,F. graminearum,0.06 ng/mL
same,MCIC,F. moniliforme; F. moniliforme,>80 µg/mL
same,MIC,F. moniliforme; [2],80
IRALQRAVRHPRAIRRIYRGWKKAIRAGPGVTIGIAHAKSQLW [Peptide 6],MIC,A. flavus; [3],80
same,MIC,F. graminearum; [1],0.01 ng/mL
same,MIC,F. moniliforme; [2],15
Mastoparan [reference compound],MCIC,A. flavus; A. flavus,40 µg/mL
same,MIC,A. flavus; [3],20
same,MCIC,F. graminearum,10 µg/mL
same,MIC,F. graminearum,0.005 ng/mL
same,MCIC,F. moniliforme; F. moniliforme,10 µg/mL
same,MIC,F. moniliforme; [2],2.5
